The term melting point denotes the temperature of the solid-liquid transition.

Each structure is given as a SMILES string.

`Nc1nccc(-c2c(-c3ccc(F)cc3)ncn2CC2CCCCC2)n1` [ZH-138, 4-(1-(Cyclohexylmethyl)-4-(4-fluorophenyl)-1H-imidazol-5-yl)pyrimidin-2-amine]: the melting point lay in the range of 180 to 199 °C.

`CC(C)(C)n1cnc(-c2ccc(F)cc2)c1-c1ccnc(N)n1` [ZH9-190, 4-(1-(Tert-butyl)-4-(4-fluorophenyl)-1H-imidazol-5-yl)pyrimidin-2-amine]: the melting point fell in the range of 189 to 197 °C.

The compound `C#CCNc1nccc(-c2c(-c3ccc(F)cc3)ncn2C2CCCCC2)n1` [compound 83, 4-(1-Cyclohexyl-4-(4-fluorophenyl)-1H-imidazol-5-yl)-N-(prop-2-yn-1-yl)pyrimidin-2-amine] had a melting point of 147 to 155 °C.

These data come from patent publication US20200079757A1, “COMPOUNDS FOR THE TREATMENT OF RESPIRATORY DISEASES” (THE UNIVERSITY OF MELBOURNE, priority 2017, published 2020).
